Laboratory results published in patent publication US10975037B2 (priority 2018, dated 2021).
Where a name gives a salt, the structure may show the parent alone. Read-outs that look alike come from different tables or passages of the source.

Tests used:
[1] = target: human RORγt ligand binding domain (RORγt LBD) (Homo sapiens (Human), UniProt P51449); assay: RORγt ThermoFluor® assay (thermal shift binding)
Summary of the method: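 Thermal shift with 0.065 mg/mL RORγt LBD and 60 μM 1,8-ANS in 100 mM Hepes pH 7.0, 10 mM NaCl, 2.5 mM GSH, 0.002% Tween-20.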

full-length human RORγt = full-length human RORγt (Homo sapiens (Human), UniProt P51449); assay: RORγt (full-length human) reporter assay, conditions A or B, HEK293T cells; type: cell-based; settings: for IC50: RORγt (FL) Reporter Assay A or B, IC50, HEK293T cells; for inhibition at 6 µM: read-out: RORγt (FL) Reporter Assay A or B, % inhibition @ 6 μM; for inhibition at 3 µM: 3 μM compound concentration (footnote *)
Chain of full-length human RORγt (P51449 other isoform, or with tags, fused parts or gaps): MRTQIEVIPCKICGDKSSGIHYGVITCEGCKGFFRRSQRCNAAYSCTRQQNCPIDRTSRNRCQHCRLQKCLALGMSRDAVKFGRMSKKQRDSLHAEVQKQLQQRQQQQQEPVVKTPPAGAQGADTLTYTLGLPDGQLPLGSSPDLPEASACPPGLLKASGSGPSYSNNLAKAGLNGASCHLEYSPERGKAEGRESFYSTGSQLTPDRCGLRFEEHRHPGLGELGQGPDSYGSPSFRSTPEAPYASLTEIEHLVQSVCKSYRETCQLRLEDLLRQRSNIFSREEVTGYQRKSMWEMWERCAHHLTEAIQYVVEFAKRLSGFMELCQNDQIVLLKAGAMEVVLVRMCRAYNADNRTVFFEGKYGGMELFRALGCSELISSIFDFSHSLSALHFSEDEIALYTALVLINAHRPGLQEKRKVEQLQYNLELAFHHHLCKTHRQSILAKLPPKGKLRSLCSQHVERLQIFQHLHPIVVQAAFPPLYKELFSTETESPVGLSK
Summary of the method: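 Dual-luciferase read-out was taken after an overnight (16–20 h) compound exposure. Firefly data were scaled between DMSO-only and saturating reference compound, Renilla-normalized, then plotted against concentration for IC50.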

[2] = read-out: ThermoFluor® Assay, Kd
[3] = HEK-293T, read-out: RORγt (FL) Reporter Assay A or B, % inhibition

Chain of human RORγt ligand binding domain (RORγt LBD) (P51449 other isoform, or with tags, fused parts or gaps): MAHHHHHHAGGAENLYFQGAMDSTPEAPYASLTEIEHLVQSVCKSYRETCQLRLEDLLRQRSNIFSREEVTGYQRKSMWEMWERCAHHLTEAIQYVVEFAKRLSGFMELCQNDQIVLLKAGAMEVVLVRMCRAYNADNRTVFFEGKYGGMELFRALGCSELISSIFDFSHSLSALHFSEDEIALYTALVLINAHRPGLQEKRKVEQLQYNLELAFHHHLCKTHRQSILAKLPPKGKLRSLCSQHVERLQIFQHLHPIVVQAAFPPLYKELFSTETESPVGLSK

Kd [1, 2] | IC50 (full-length human RORγt) | Kd ([1]; ThermoFluor® Assay, Kd) | Structure (SMILES) | also measured
0.8 nM | 13 nM | – | Cc1c(C(=O)NC[C@]2(O)CC[C@@H](S(C)(=O)=O)CC2)nn(C)c1-c1ccc(CC(C)(C)C(F)(F)F)cc1OC(F)F [Example 157, 5-(2-(Difluoromethoxy)-4-(3,3,3-trifluoro-2,2-dimethylpropyl)phenyl)-N-(((1s,4s)-1-hydroxy-4-(methylsulfonyl)cyclohexyl)methyl)-1,4-dimethyl-1H-pyrazole-3-carboxamide] | inhibition at 0.3 µM (full-length human RORγt; [3]): 101%
3.4 nM | 41 nM | – | CCn1nc(C(=O)NC[C@]2(C#N)CC[C@@H](S(C)(=O)=O)CC2)c(Cl)c1-c1ccc(CC(C)(C)C(F)(F)F)cc1 [Example 169, 4-Chloro-N-(((1s*,4s*)-1-cyano-4-(methylsulfonyl)cyclohexyl)methyl)-1-ethyl-5-(4-(3,3,3-trifluoro-2,2-dimethylpropyl)phenyl)-1H-pyrazole-3-carboxamide] | inhibition at […] (full-length human RORγt; HEK-293T, 0.22 μM compound concentration (footnote *******), read-out: RORγt (FL) Reporter Assay A or B, % inhibition): 85%
5.1 nM | 13 nM | – | CCn1nc(C(=O)NC[C@]2(O)CC[C@@H](S(C)(=O)=O)CC2)c(Cl)c1-c1ccc(CCCC(F)(F)F)cc1OC [Example 81, 4-Chloro-1-ethyl-N-(((1s,4s)-1-hydroxy-4-(methylsulfonyl)cyclohexyl)methyl)-5-(2-methoxy-4-(4,4,4-trifluorobutyl)phenyl)-1H-pyrazole-3-carboxamide] | inhibition at 2 µM (full-length human RORγt; HEK-293T, 2 μM compound concentration, read-out: RORγt (FL) Reporter Assay A or B, % inhibition): 89%
7.2 nM | 41 nM | – | CCCn1nc(C(=O)NC[C@]2(O)CC[C@@H](S(C)(=O)=O)CC2)c(Cl)c1-c1ccc(N[C@H](C)C(F)(F)F)cc1OC [Example 31, 4-Chloro-N-(((1s,4S)-1-hydroxy-4-(methylsulfonyl)cyclohexyl)methyl)-5-(2-methoxy-4-(((R)-1,1,1-trifluoropropan-2-yl)amino)phenyl)-1-propyl-1H-pyrazole-3-carboxamide] | inhibition at 6 µM (full-length human RORγt; HEK-293T): 105%
– | > 6000 nM | 1500 nM | CCn1nc(C(=O)NC[C@]2(C(=O)O)CC[C@@H](S(C)(=O)=O)CC2)c(Cl)c1-c1ccc(CC(C)(C)C(F)(F)F)cc1OC(F)F [Example 119, (1s*,4s*)-1-((4-Chloro-5-(2-(difluoromethoxy)-4-(3,3,3-trifluoro-2,2-dimethylpropyl)phenyl)-1-ethyl-1H-pyrazole-3-carboxamido)methyl)-4-(methylsulfonyl)cyclohexane-1-carboxylic Acid] | inhibition at 6 µM (full-length human RORγt; HEK-293T, 6 μM compound concentration): 14%
– | 13 nM | 0.73 nM | CCn1nc(C(=O)NC[C@H]2CC[C@H](S(C)(=O)=O)CN2)c(Cl)c1-c1ccc(CC(C)(C)C(F)(F)F)cc1OC(F)F (stereo in doubt) [Example 8, 4-Chloro-5-(2-(difluoromethoxy)-4-(3,3,3-trifluoro-2,2-dimethylpropyl)phenyl)-1-ethyl-N-(((2RS,5SR)-5-(methylsulfonyl)piperidin-2-yl)methyl)-1H-pyrazole-3-carboxamide Hydrobromide] | inhibition at 3 µM (full-length human RORγt; [3]): 92%
– | 68 nM | 2.1 nM | CCn1nc(C(=O)NC[C@@]2(O)CC[C@H](S(C)(=O)=O)C[C@@H]2N)c(Cl)c1-c1ccc(CC(C)(C)C(F)(F)F)cc1OC(F)F (stereo in doubt) [Example 7, N-(((1S*,2S*,4S*)-2-Amino-1-hydroxy-4-(methylsulfonyl)cyclohexyl)methyl)-4-chloro-5-(2-(difluoromethoxy)-4-(3,3,3-trifluoro-2,2-dimethylpropyl)phenyl)-1-ethyl-1H-pyrazole-3-carboxamide hydrobromide] | inhibition at 1 µM (full-length human RORγt; HEK-293T, 1 μM compound concentration (footnote ***), read-out: RORγt (FL) Reporter Assay A or B, % inhibition): 103%
2.5 nM | 9.3 nM | – | CCn1nc(C(=O)NC[C@]2(O)CC[C@@H](S(C)(=O)=O)CC2)c(Cl)c1-c1ccc(CCC(F)(F)F)cc1OC(F)F [Example 221, 4-Chloro-5-(2-(difluoromethoxy)-4-(3,3,3-trifluoropropyl)phenyl)-1-ethyl-N-(((1s,4s)-1-hydroxy-4-(methylsulfonyl)cyclohexyl)methyl)-1H-pyrazole-3-carboxamide] | inhibition at 3 µM (full-length human RORγt; [3]): 90%
